Legend:
Format in all cases: physicochemical
[1] = Boiling point of fluoroethers; settings: for Bp: Table 5; for Boiling point: Table 2
[2] = Experimental dielectric property measurements, Agilent 85070 Dielectric Probe; settings: for Experimental Dk at 1 GHz / Experimental Loss Tangent at 1 GHZ: ambient pressure, approximately 23° C.; for Dielectric Constant (20 GHz): room temperature
Description: “Dielectric Constant” means the dielectric constant as measured at room temperature at 20 giga hertz (GHz).
Experimental dielectric property measurements were made on all liquids using the Agilent 85070 Dielectric Probe. All measurements were made at ambient pressure and room temperature (approximately 23° C.). Prior to making measurements, the system was calibrated from 1 GHz to 20 GHz with an open circuit, a short circuit, and DI water (@22.4° C.) standard. The result of the calibration is shown in the Table 5 below for DI H2O, and is consistent with DI water at 22.4° C. The accuracy of the probe is given as: Dielectric constant, er′=er′+/−0.05|er*| with er″=er″+/−0.05|er*| and (loss=er″/er′).

Density of fluoroethers = settings: Table 2

Row | SMILES | Bp [1] [°C] | Experimental Dk at 1 GHz [2] | Experimental Loss Tangent at 1 GHZ [2] | Boiling point [1] [°C] | Density (Density of fluoroethers) | Dielectric Constant (20 GHz) [2]
1 | O [DI Water, reference compound] | 100 | 79.15 | 0.052 |  |  | 
2 | FC(F)OCC(F)(F)C(F)(F)F [Compound 2, 3-(difluoromethoxy)-1,1,1,2,2-pentafluoropropane] | 46 | 5.21 | 0.038 | 46 | 1.3-1.7 | 3.4
3 | FC(F)OCC(F)(F)C(F)(F)C(F)(F)F [Compound 4, 4-(difluoromethoxy)-1,1,1,2,2,3,3-heptafluorobutane] | 69 | 4.51 | 0.054 | 69 | 1.3-1.7 | 2.8
4 | FC(F)OC(C(F)(F)F)C(F)(F)F [Compound 3, 2-(difluoromethoxy)-1,1,1,3,3,3-hexafluoropropane] | 41 |  |  | 41 | 1.3-1.7 | <5
5 | FC(F)OCC(F)(F)C(F)F [Compound 1, 3-(difluoromethoxy)-1,1,2,2-tetrafluoropropane] | 76 | 2.94 | 0.036 | 76 | 1.3-1.7 | 4.0
